Here are results for one molecule from patent US7199157B2, “Use of treprostinil to improve kidney functions” (United Therapeutics Corporation, priority 2003, dated 2007).

Data set [1] relates to patients suffering from poor kidney function. Kind of data set: Administration of Treprostinil to humans suffering from kidney malfunction/failure (chronic continuous subcutaneous infusion). The method, then:
The target dose is determined by titration in patients for a clinical effect. The medication is delivered by a small pump that is connected to a catheter placed under the skin. In this manner, increasing dosages of Treprostinil are administered to patients by chronic continuous subcutaneous infusion. […] An example of one target dose is 10 ng/kg/min.

The subject of data set [2] is human pulmonary arterial smooth muscle cells. As to conditions: cited from earlier work.
Data set [3] has as its system human alveolar macrophages. The note with it: cited from earlier work.
For data set [4], the system named is patients with class III or class IV heart failure. As to conditions: cited from earlier work.

As to `CCCCC[C@H](O)CC[C@@H]1[C@H]2Cc3cccc(OCC(=O)[O-])c3C[C@H]2C[C@H]1O.[Na+]` [Treprostinil], the urine production entry in data set [1] (at least two patients with poor kidney function, also on dialysis, treatment over the course of several weeks) was “improved urine production”. In addition, the common side effects result in data set [1] (at peak dose, continuous subcutaneous infusion) was “headache and nausea”. The “proliferation of human pulmonary arterial smooth muscle cells” value in data set [2] was “inhibits proliferation”. Besides, the “inflammatory cytokine (tumor necrosis factor-α, interleukin-1β, interleukin-6, granulocyte macrophage colony-stimulating factor) secretion and gene expression” value in data set [3] is “inhibits”. In data set [4], the vasodilator effects result is “vasodilator effects”.
